Reference: ChEMBL document CHEMBL1140575, “Xanthones from Cudrania tricuspidata displaying potent alpha-glucosidase inhibition” (Bioorg Med Chem Lett, 2007)

Assay: Inhibition of bakers yeast alpha-glucosidase by spectrophotometry
Set-up: species or system Saccharomyces cerevisiae

Work on `C=CC(C)(C)c1c(O)cc2oc3cc(O)c(O)c(CC=C(C)C)c3c(=O)c2c1O` yielded an IC50 of 35.8 µM.

For `CC(C)=CCc1c2c(c(O)c3c(=O)c4cc(O)c(O)cc4oc13)C(C)(C)C(C)O2` (stereo not drawn), the IC50 was 32 µM.

For `C=CC(C)(C)c1c(O)cc(O)c2c(=O)c3cc(O)c4c(c3oc12)C=CC(C)(C)O4`, the IC50 was 24.9 µM.

Work on `C=CC(C)(C)c1c(O)cc(O)c2c(=O)c3c(CC=C(C)C)c(O)c(O)cc3oc12` [CUDRATRICUSXANTHONE A] yielded an IC50 of 37.7 µM.

Compound `C=CC(C)(C)c1c(OC)cc(O)c2c(=O)c3c(CC=C(C)C)c(O)c(O)cc3oc12` [CUDRAXANTHONE D] has an IC50 of 16.2 µM.

For `C=CC(C)(C)c1c(O)cc2oc3c(CC=C(C)C)c(O)c(O)cc3c(=O)c2c1O` [CUDRAXANTHONE L], the IC50 was 52.9 µM.

With `CC(C)=CCc1c(O)c(O)cc2c(=O)c3c(O)c4c(cc3oc12)OC(C)C4(C)C` (stereo not drawn) [CUDRAXANTHONE M] the IC50 was > 100 µM.

With `C=CC(C)(C)c1c(O)c(CC=C(C)C)c2oc3cc(O)c(O)cc3c(=O)c2c1O` [MACLURAXANTHONE B] the IC50 was 38.2 µM.
